Consider one compound from publication PMC4448982, “LP-925219 maximizes urinary glucose excretion in mice by inhibiting both renal SGLT1 and SGLT2” (Pharmacology Research & Perspectives, 2015).

One experiment deals with T1, dog SGLT1 (Canis lupus familiaris, UniProt A0A8I3PYH5).
T1 sequence (A0A8I3PYH5 1-662): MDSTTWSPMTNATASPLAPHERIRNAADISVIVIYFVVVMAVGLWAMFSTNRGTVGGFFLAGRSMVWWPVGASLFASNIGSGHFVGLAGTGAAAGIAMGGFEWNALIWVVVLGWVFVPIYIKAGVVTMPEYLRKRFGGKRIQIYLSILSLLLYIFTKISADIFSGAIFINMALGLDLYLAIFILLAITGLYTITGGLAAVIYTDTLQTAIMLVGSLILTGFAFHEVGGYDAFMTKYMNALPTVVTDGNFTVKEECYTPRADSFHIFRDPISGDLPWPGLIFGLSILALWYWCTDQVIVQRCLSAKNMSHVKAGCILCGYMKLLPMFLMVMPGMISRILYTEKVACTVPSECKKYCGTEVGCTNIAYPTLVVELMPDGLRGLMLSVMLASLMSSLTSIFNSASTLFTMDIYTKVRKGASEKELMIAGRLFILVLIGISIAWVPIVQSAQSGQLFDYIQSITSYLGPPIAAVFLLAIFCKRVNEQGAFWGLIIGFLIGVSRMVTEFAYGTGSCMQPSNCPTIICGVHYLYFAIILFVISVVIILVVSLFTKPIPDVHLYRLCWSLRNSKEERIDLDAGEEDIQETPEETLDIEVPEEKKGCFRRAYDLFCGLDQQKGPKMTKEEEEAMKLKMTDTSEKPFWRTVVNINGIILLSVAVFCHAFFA
The experiment in a line: 14C-AMG uptake assay, cells expressing dog SGLT1. The class given is cell-based. The note with it: mean ± SD. The text has this: (§1) Methods for generating cell lines expressing mouse, rat, and dog SGLT1 and SGLT2 are published (Powell et al. [2013b], [2014]). Full-length coding sequence of human SGLT1 (NP_000334) and human SGLT2 (NP_003032.1) with an HA-tag at the N-terminus were cloned into the mammalian expression vector pIRESpuro2 (Clontech, Mountain View, CA). HEK293 cells (ATCC, Manassas, VA) were transfected with the pIRESpuro2 vector containing human SGLT1 or SGLT2 and bulk stable cell lines were selected in the presence of 0.5 μg/mL of puromycin.
(§2) Cell lines expressing SGLT1 or SGLT2 were plated into poly-D-lysine-coated 384-well plates, and culture overnight in cell growth medium. Cells were washed, and then incubated in uptake buffer ([…], […] KCl, […] CaCl2, […] MgCl2, […] HEPES/Tris, 1 mg/mL of bovine serum albumin, pH7.4) containing [^14C]α-methylglucopyranoside (^14C-AMG), a nonmetabolizable glucose analog specific for sodium-dependent glucose transporters (Wright and Turk [2004]). The inhibition of SGLT1 or SGLT2 was determined by measuring SGLT1/2-mediated ^14C-AMG uptake in the presence of increasing compound concentrations of LP-925219. […] Standard sigmoidal dose–response model curves were fitted, and the IC50 value was computed as the LP-925219 concentration that inhibited the ^14C-AMG uptake by 50% between baseline and maximum uptake.

A further experiment has as its target T2, rat SGLT2 (Rattus norvegicus, UniProt P53792).
T2 construct: expressed in transfected cells; host or cells: HEK293 (per abstract)
T2 sequence (P53792 1-670): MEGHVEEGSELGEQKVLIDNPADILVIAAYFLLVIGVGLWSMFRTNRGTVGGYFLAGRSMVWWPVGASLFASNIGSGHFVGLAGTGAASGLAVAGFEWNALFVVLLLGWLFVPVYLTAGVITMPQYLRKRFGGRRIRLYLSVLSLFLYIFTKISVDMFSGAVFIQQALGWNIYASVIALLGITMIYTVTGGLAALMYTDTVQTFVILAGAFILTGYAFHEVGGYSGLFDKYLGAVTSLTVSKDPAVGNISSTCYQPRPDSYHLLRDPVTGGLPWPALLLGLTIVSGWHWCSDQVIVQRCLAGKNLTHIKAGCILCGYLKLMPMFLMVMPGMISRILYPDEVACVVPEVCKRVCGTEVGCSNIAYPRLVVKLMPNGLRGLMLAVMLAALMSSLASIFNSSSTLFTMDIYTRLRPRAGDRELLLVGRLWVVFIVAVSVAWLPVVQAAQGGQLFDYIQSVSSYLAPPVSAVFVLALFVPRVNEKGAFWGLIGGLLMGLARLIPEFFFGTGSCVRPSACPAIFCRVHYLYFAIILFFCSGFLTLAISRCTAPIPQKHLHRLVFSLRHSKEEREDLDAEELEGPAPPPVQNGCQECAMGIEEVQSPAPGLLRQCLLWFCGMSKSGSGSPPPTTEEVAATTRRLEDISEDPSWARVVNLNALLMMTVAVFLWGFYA
The experiment in a line: 14C-AMG uptake assay, cells expressing rat SGLT2. The class given is cell-based. The note with it: mean ± SD.
Source text: as §1, §2

Usually IC50 stands for the concentration that inhibits the measured activity by half. Read a high IC50 as weaker potency. As for `COc1ccc(Cc2cc([C@@H]3O[C@H](SC)[C@@H](O)[C@H](O)[C@H]3O)ccc2Cl)cc1` [LP-925219], the values for the half-inhibitory concentration (IC50) on dog SGLT1 and at rat SGLT2 were 30.2 ± 2 nM and 0.3 ± 0.2 nM, respectively.
